Earlier results as cited in patent EP0769503A2, “A heparin complex and medical device having such substance” (priority 1995, dated 1997).

test system: rat; settings: oral administration to rat

Point of comparison: “Benzalkonium dimethylammonium (C8-C18) chloride”, LD50 445 mg/kg. Against it:
- CCCCCCCCCCCCCCCCCC[N+](C)(C)CCCCCCCCCCCCCCCCCC.[Cl-] [Distearyldimethylammonium chloride] — 25-fold higher, 11300 mg/kg
- CCCCCCCCCCCCCCCCCC[N+](C)(C)Cc1ccccc1.[Cl-] [Stearylbenzyldimethylammonium chloride] — 2.8-fold higher, 1250 mg/kg
- CCCCCCCCCCCCCCCC[N+](C)(C)C.[Cl-] [Trimethylhexadecylammonium chloride] — lower, 250 to 300 mg/kg
- CCCCCCCCCCCCCCCCCC[N+](C)(C)C.[Cl-] [Trimethyloctadecylammonium chloride] — 2.2-fold higher, 1000 mg/kg

For `CCCCCCCCCCCC[N+](C)(C)Cc1ccccc1.[Cl-]` [Laurylbenzyldimethylammonium chloride], the LD50 is given as >500 mg/kg.
